Key:
NK3-receptor = biological target: T1, NK3-receptor (Cavia porcellus, UniProt P30098); test: NK-3-receptor-antagonistic effectiveness in vivo, senktide-induced hypertension in guinea pigs; details: guinea pig, iv; read-out: ID50 (iv), inhibition of blood pressure
T1 construct: from tissue; host or cells: whole animal (Dunkin Hartley guinea pigs), in vivo
T1 sequence (P30098 1-440): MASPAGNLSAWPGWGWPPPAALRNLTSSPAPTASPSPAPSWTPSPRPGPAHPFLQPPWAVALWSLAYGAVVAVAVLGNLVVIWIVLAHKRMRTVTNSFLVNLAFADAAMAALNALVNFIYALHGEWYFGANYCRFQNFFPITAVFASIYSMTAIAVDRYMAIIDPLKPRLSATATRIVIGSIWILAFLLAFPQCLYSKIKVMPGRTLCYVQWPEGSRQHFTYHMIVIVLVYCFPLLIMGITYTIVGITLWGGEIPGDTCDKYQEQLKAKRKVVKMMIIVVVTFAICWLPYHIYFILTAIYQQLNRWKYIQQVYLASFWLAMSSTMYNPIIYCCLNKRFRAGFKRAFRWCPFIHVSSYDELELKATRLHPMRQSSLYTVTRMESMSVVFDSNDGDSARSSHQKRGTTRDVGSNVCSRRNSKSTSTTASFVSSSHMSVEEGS
Protocol: 9. Determination of the NK-3-Receptor-Antagonistic Effectiveness of the Test Substances In Vivo (Reduction of Blood Pressure in Guinea-Pigs with Senktide-Induced Hypertension)
NK3 agonists increase the blood pressure in guinea pigs. The senktide-induced hypertension can be antagonized by administering compounds with NK3-antagonistic properties. Measuring the level of hypertension is indicative of the degree of activity of the test compounds. The effect of the tested compound is assessed in the same experiment to exclude an additional hypertensional effect.
Male Dunkin Hartley guinea pigs with a body weight between 450 and 550 g were anesthetized with Ketamin (200 mg/kg i.m.; Aescoket 10%) and the left carotid artery and left jugular vein were cannulated for blood pressure measurement and drug application, respectively. The animals were allowed to breathe spontaneously. Blood pressure was measured with a strain gauge transducer connected to a computer via an amplifier.
For oral administration, vehicle (1% methylcellulose) or test compound was administered in a dose volume of 5 ml/kg. Forty five minutes thereafter, anesthesia was induced and the carotid artery and jugular vein were cannulated.
For intravenous administration, the test compounds were dissolved in 40% hydroxypropyl-β-cyclodextrine (HPCD) containing 10% DMSO, diluted with saline and administered intravenously in cumulative dose ranges. A vehicle group of animals received the corresponding HPCD/DMSO solutions instead of the test compound. For oral administration, the test compound was suspended in 1% methylcellulose. A vehicle group of animals received the corresponding […] of the test compound.

human NK2-receptor [1] = biological target: T2, human NK2-receptor (Homo sapiens, UniProt P21452); test: Functional cellular test, Ca2+ measurements using FLIPR for NK2 activity; details: for pA2 data for NK2: CHO cells, human NK2, FLIPR Ca2+, agonist NKA 10^-7 M;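 for all read-outs here: CHO cells stably expressing the human receptor, loaded with a calcium dye, antagonist inhibition of ligand-evoked intracellular calcium rise read as peak fluorescence change on FLIPR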
T2 sequence (P21452 1-398): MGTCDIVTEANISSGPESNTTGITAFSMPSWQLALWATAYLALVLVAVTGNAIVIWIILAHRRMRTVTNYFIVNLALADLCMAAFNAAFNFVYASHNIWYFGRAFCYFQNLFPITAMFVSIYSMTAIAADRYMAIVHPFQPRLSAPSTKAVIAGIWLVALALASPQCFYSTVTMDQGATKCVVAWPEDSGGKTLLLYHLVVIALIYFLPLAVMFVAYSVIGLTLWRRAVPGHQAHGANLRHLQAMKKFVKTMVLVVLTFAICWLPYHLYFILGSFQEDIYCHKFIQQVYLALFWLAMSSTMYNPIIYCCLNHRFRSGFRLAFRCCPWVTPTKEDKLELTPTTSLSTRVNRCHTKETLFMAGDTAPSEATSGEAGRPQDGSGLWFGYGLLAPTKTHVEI
Protocol: Functional Cellular Tests of the NK1-, NK2- and NK3-Antagonism
Functional cellular tests of the antagonistic effect of the compounds of the present invention on the human tachykinin receptors were performed in CHO cells expressing the recombinant human NK1, NK2 or NK3-receptor. In these tests the inhibition of ligand-induced increase in mobilization of intracellular calcium and inhibition of ligand-induced phosphorylation of mitogen activated protein kinase (MAPK) were determined, which can be used as a measure of functional activity of tachykinin-antagonists. Additionally, the antagonistic properties of reference compounds on the different tachykinin receptors were characterized for comparison.
The effects of test compounds were assessed using Chinese hamster ovary (CHO) fibroblast cells, stably expressing cloned human NK1, NK2 or NK3-receptors. The NK receptor is coupled to Gq. The activation of the Gq protein by ligand binding to the receptor leads to a mobilization of intracellular calcium and phosphorylation of MAPK. Both systems were used to determine functional effects of the test compounds.
Ca^2+ Measurements Using FLIPR for NK1 and NK2 Activity
For tests, cells were seeded 24 hours prior to the experiment into black 96-well microplates. The cell density was 2.2×10^4 cells/well. All steps were done under sterile conditions. In order to observe changes in intracellular calcium levels, cells were loaded with a calcium-sensitive dye. This dye (FLUO-4, from Molecular Probes) excites at 488 nm, and emits in the 500 nm to 560 nm range, only if a complex with calcium is formed. For the dye loading the growth-medium was aspirated out of the well without disturbing the confluent cell layer and 100 μl loading medium (HBSS, 4 μM FLUO-4, 0.005% (w/v) pluronic acid, 2.5 mM probenecid, 20 mM HEPES, pH 7.4) was dispensed into each well using an automatic pipettor system (Multidrop, Labsystems). Pluronic acid was added to increase dye solubility and dye uptake into the cells, whereas probenecid, an anion exchange inhibitor, was added to the loading medium to increase dye retention in the cells. The cells were incubated in a 5% CO2 incubator at 37° C. for 40 minutes. After dye loading, the cells were washed three times with wash-buffer (HBSS, 2.5 mM probenecid, 20 mM HEPES, pH 7.4) to reduce basal fluorescence. In the last washing step the buffer was aspirated and replaced with 100 μl washing buffer. […] The FLIPR setup parameters were set to 0.4 sec exposure length, filter 1, 50 μl fluid addition, pipettor height at 125 μl, dispense speed 40 μl/sec without mixing. Maximal fluorescence changes were obtained using the statistic function of the FLIPR software, and data plotted using GraphPad Prism 4. All points were expressed as a percentage inhibition of the control agonist. IC50 values were determined using sigmoidal dose-response curve fitting. Antagonist potencies (pA2) values were calculated using equation: pA2=−log(IC50/(1+[L]/EC50)),

human NK2-receptor [2] = biological target: T2, human NK2-receptor; test: Binding potency of the test substances to NK2-receptors in vitro ([3H]-SR 48968 displacement); design: expressed in transfected cells; host or cells: CHO cells (membrane preparation); details: human NK2-receptor in CHO cell membranes, [3H]-SR 48968 (saredutant); average of at least three measurements; read-out: pKi, binding potency to NK2-receptors (converted)
In short: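 Membranes from CHO cells stably expressing the receptor were incubated with [3H]-saredutant plus test compound, then filtered and counted by liquid scintillation. Nonspecific binding defined with 0.1 μmol/l unlabeled saredutant. IC50 from displacement converted to Ki via Cheng-Prusoff and reported as pKi, averaged over measurements.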

human NK3 receptor [3] = biological target: T3, human NK3 receptor (Homo sapiens, UniProt P29371); test: Functional cellular test, Ca2+ measurements using aequorin for NK3 activity; assay type: cell-based; design: expressed in transfected cells; host or cells: cell line co-expressing mitochondrially targeted apoaequorin (CHO according to b76/b77); details: for pA2 data for NK3: cell line with human NK3 receptor and apoaequorin, agonist senktide 5x10-8 M
T3 sequence (P29371 1-465): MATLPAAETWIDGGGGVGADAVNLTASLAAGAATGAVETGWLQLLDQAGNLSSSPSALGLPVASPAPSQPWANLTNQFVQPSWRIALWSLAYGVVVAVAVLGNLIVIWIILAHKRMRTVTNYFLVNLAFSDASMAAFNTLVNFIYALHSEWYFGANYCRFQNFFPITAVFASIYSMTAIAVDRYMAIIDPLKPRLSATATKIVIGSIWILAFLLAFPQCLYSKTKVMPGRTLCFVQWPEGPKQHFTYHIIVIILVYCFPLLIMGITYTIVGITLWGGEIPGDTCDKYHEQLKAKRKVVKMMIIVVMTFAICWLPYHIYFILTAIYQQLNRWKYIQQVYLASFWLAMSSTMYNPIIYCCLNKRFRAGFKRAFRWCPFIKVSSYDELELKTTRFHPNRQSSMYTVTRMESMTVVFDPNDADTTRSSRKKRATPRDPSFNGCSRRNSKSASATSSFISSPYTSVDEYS

human NK1-receptor [4] = biological target: T4, human NK1-receptor (Homo sapiens, UniProt P25103); test: Binding potency of the test substances to NK1-receptors in vitro ([3H]-Substance P displacement); details: human NK1-receptor in CHO cell membranes, average of at least three measurements
Protocol: 1. Determination of the Binding Potency of the Test Substances to NK1-Receptors in Vitro
The affinity of test compounds for NK1-receptors can be determined by measuring the ability of the test compound to displace a radiolabeled ligand from its specific binding site. The tests were performed at Solvay Pharmaceuticals, Weesp, The Netherlands.
Separation of bound radioactivity from free radioactivity was done by filtration through glass fiber filters (Packard GF/B) with several washings with ice-cold buffer solution. Bound radioactivity was measured with a liquid scintillation counter (total binding).
The inhibition constant (Ki) was calculated according to the Cheng-Prusoff equation, and listed as its negative logarithmic value (pKi). The pKi value describes the potency of a test compound to bind to a receptor.

NK1-receptor = biological target: T5, NK1-receptor (Cavia porcellus, UniProt P30547); test: NK1-receptor-antagonistic effectiveness in vivo, NKA-induced early hypotension in anaesthetised guinea pigs; details: guinea pig, NKA 200 pmol/animal i.v.; for ED50 iv after 1 min (cumulative), NK1 (early hypotension): intravenous administration
T5 construct: from tissue; host or cells: whole animal (Pirbright-White guinea pigs), in vivo
Text: (§1) 10. Determination of the NK1- and NK2-Receptor-Antagonistic Effectiveness of the Test Substances In Vivo
(§2) The NK1- and NK2-antagonistic activities of the test substances were investigated in anaesthetised guinea pigs in each case after intravenous (=i.v.) and oral (=p.o.) administration in vivo. With the present test model it is possible to detect both NK2-antagonistic effects in three different organ systems (respiratory tracts, colon and circulation) and NK1-antagonistic effects (rapid drop in blood pressure) in an animal simultaneously.
(§3) Pirbright-White guinea pigs of a body weight of 500-700 g were anaesthetised with ketamine/xylazine (67/13 mg/kg subcutaneously, initial dose, further doses administered as required). The animals were provided with an intravenous catheter in order to administer the substance and an intra-arterial catheter to measure the blood pressure. The animals were artificially ventilated via a tracheal cannula and the respiratory pressure was recorded by means of a pressure transducer. A balloon was introduced into the distal colon of the animals for manometric recording of colon motility by means of a pressure transducer. Blood pressure, heart rate, respiratory pressure and colonic pressure were measured continuously for each animal and plotted on a recorder and by means of a digital data-processing system. […] The second phase of delayed hypotension (=phase of maximum hypotension after 2-5 min.) on the other hand is mediated via NK2-receptors, since they can be blocked by specific NK2-receptor antagonists.
(§4) These ED50 values obtained from cumulative dose effect curves are plotted in Table 13.

NK2-receptor = biological target: T6, NK2-receptor (Cavia porcellus, UniProt Q64077); test: NK2-receptor-antagonistic effectiveness in vivo, NKA-induced late hypotension, bronchoconstriction and colonic pressure in anaesthetised guinea pigs; details: guinea pig; for ED50 iv after 1 min (cumulative), NK2 (bronchoconstriction) / ED50 iv after 1 min (cumulative), NK2 (colonic motility) / ED50 iv after 1 min (cumulative), NK2 (late hypotension): intravenous administration
T6 construct: from tissue; host or cells: whole animal (Pirbright-White guinea pigs), in vivo
T6 sequence (Q64077 1-402): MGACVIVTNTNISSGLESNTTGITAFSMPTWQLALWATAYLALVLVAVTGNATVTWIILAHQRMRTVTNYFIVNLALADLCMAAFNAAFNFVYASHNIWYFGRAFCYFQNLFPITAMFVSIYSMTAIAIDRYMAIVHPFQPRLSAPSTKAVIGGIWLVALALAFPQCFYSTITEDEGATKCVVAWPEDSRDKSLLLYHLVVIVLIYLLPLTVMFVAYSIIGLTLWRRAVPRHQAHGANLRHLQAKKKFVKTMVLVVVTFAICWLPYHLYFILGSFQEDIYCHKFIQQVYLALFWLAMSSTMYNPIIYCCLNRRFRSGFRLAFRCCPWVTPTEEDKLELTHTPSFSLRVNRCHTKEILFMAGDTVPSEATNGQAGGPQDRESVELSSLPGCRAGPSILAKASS
Text: as §1, §2, §3, §4

human NK1-receptor [5] = biological target: T4, human NK1-receptor; test: Functional cellular test, Ca2+ measurements using FLIPR for NK1 activity; assay type: cell-based; design: expressed in transfected cells; host or cells: CHO fibroblast cells; details: CHO cells, human NK1, FLIPR Ca2+, agonist substance P 10^-8 M
Text: The NK receptor is coupled to Gq.
All steps were done under sterile conditions.

human NK3 receptor [6] = biological target: T3, human NK3 receptor; test: Binding potency of the test substances to NK3-receptors in vitro ([3H]-SR 142801 displacement); design: expressed in transfected cells; host or cells: CHO cells (membrane preparation); details: human NK3-receptor in CHO cell membranes, [3H]-SR 142801 (osanetant); average of at least three measurements
In short: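 [3H]-osanetant displacement on membranes from CHO cells stably expressing the human receptor, with bound ligand separated by filtration and counted by scintillation. Nonspecific binding defined with 1 μmol/l unlabeled osanetant. IC50 converted to Ki by Cheng-Prusoff and reported as pKi, averaged over measurements.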

[7] = NKA 200 pmol/animal i.v., oral administration

T4 sequence (P25103 whole entry): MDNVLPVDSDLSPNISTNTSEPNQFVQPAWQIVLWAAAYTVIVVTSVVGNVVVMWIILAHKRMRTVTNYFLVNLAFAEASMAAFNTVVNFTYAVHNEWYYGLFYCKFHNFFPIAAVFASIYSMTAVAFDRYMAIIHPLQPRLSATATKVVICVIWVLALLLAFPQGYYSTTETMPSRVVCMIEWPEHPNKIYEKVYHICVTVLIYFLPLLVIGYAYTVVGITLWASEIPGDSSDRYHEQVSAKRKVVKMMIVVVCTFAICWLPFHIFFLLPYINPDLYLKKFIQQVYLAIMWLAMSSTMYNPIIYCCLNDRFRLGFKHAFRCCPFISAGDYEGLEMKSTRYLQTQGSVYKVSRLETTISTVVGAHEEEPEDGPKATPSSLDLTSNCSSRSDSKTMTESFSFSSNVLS
T5 sequence (P30547 whole entry): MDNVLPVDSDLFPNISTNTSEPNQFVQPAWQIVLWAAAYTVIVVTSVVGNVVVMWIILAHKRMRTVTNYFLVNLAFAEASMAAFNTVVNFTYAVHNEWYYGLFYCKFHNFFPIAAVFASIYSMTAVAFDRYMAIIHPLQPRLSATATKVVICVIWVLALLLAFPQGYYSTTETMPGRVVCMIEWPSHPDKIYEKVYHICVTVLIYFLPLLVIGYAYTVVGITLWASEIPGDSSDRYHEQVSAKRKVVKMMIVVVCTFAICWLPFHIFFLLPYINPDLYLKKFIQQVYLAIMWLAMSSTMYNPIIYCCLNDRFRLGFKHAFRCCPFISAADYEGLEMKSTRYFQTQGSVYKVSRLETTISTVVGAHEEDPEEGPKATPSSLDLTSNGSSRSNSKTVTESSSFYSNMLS

Row | SMILES | ED50 (NK3-receptor) | Kb (human NK2-receptor [1]) | Ki (human NK2-receptor [2]) | Kb (human NK3 receptor [3]; read-out: pA2 data for NK3 (converted)) | pKi, binding potency to NK1-receptors (human NK1-receptor [4]) | ED50 iv after 1 min (cumulative), NK1 (early hypotension) (NK1-receptor) | ED50 AUC1-180 min oral, NK1 (early hypotension) (NK1-receptor; oral administration) | ED50 iv after 1 min (cumulative), NK2 (bronchoconstriction) (NK2-receptor; NKA 200 pmol/animal i.v.) | ED50 iv after 1 min (cumulative), NK2 (colonic motility) (NK2-receptor; NKA 200 pmol/animal i.v.) | ED50 iv after 1 min (cumulative), NK2 (late hypotension) (NK2-receptor; NKA 200 pmol/animal i.v.) | ED50 AUC1-180 min oral, NK2 (bronchoconstriction) (NK2-receptor; [7]) | ED50 AUC1-180 min oral, NK2 (colonic motility) (NK2-receptor; [7]) | ED50 AUC1-180 min oral, NK2 (late hypotension) (NK2-receptor; [7]) | oral activity on the NK2, in words (NK2-receptor; oral administration) | pA2 data for NK1 (human NK1-receptor [5]) | pA2 data for NK2 (human NK2-receptor [1]) | pA2 data for NK3 (human NK3 receptor [3]) | pKi, binding potency to NK3-receptors (human NK3 receptor [6])
1 | CNC(=O)C1(N2CCCCC2)CCN(CC[C@H](CN(C)C(=O)c2ccccc2)c2ccc(Cl)c(Cl)c2)CC1 [compound 2] | 1.98 mg/kg | 0.501 nM | 0.398 nM | 31.6 nM | – | – | – | – | – | – | – | – | – | – | – | – | – | –
2 | CN(C)C(=O)C1(N2CCCCC2)CCN(CC[C@H](CN(C)C(=O)c2ccc(F)c(Cl)c2)c2ccc(Cl)c(Cl)c2)CC1 [compound 8] | – | – | – | – | 7.4 | >1.462 µmol/kg | >3.2 µmol/kg | 0.731 µmol/kg | 0.294 µmol/kg | 1.113 µmol/kg | >3.2 µmol/kg | >3.2 µmol/kg | >3.2 µmol/kg | active orally on the NK2 | 7.1 | 8.6 | 8.4 | –
3 | CN(C)C(=O)C1(N2CCCCC2)CCN(CC[C@H](CN(C)C(=O)c2cc(F)cc(F)c2)c2ccc(Cl)c(Cl)c2)CC1 [compound 9] | – | – | – | – | 7.6 | >1.462 µmol/kg | – | 0.058 µmol/kg | 0.053 µmol/kg | 0.108 µmol/kg | – | – | – | – | 8.0 | 8.6 | 8.0 | 8.4

Reference: patent US20070219214A1, “Dual NK2/NK3-antagonists, pharmaceutical compositions comprising them, and processes for their preparation” (Solvay pharmaceuticals GmbH, priority 2006, published 2007)
